We go through two substances from patent US6517864B1 (Pharmacia AB, priority 1998, dated 2003).

Series [1] in a line: pharmacokinetics of oral tolterodine (background data). As to conditions: extensive metabolisers, EMs.
Series [2] can be described thus: In vitro permeation across synthetic membranes and dermatomed pig skin from solutions of tolterodine base (Franz diffusion cells, Example 2). In kind it is in vitro ADME. The protocol:
In vitro skin permeation results were obtained from studies on pig or human skin using Franz diffusion cells.
Full thickness pig and human skin (used in Example 1) or 765 μm skin (used in all other Examples) was used. The 765 μm skin was isolated by using a dermatome (Zimmer Electric Dermatome 8821, Zimmer Chirurgie).
The skin was mounted in the diffusion cells with an available diffusion area of 1.8 cm^2. The inner side of the skin was exposed to 12.1 ml receptor phase (0.05M phosphate buffer, pH 7.4) at 37±1° C. Samples were withdrawn periodically and measured by HPLC. Fluxes (>g/cm^2/h) were obtained by linear regression of data at steady state.
In vitro permeation studies across synthetic membranes and dermatomed pig skin from solutions of tolterodine base, imitating the reservoir type transdermal device. Enhancer was added to one of the solutions.
Membranes of the following types were used: CoTran 9702 (microporous polyethylene film) with 9% vinyl acetate (VA) and CoTran 9728 with 19% vinyl acetate. The solutions 3 and 4 were both applied on the surface of the two mentioned membranes while solution 5 only was applied on the surface of the CoTran 9702 membrane with 9% vinyl acetate. The membranes were placed on top of dermatomed pigskin. The inner sides of the pigskin were exposed to 12.1 ml receptor solution (0.05M phosphate pH 7.4 equilibrated to 37±1° C.).

The nature of series [3]: partition coefficient between n-octanol and phosphate buffer. As to conditions: n-octanol / phosphate buffer at pH 7.32.
The conditions of series [4]: poor metabolizer; cited from earlier work.
The nature of series [5]: solubility in water. As to conditions: room temperature.
Series [6] relates to guinea pigs. Nature of the series: Delayed contact hypersensitivity, Guinea Pig Maximization Test. The format is in vivo. As to conditions: 1% intradermal induction, 25% topical induction and challenge, in sesame oil. An excerpt:
The delayed contact hypersensitivity test used was the Guinea Pig Maximization Test described by B. Magnusson and A. M. Kligman.
A 1% (w/w) test article concentration in sesame oil was used for the intradermal induction. A 25% (w/w) test article concentration in sesame oil was used for the topical induction and for the challenge application.

With “N,N-dilso-propyl-3′-(2-hydroxy-5-methylphenyl)-3-phenylpropanamine [Tolterodine]”, the half-life result in series [1] is given as “about 2 hours”. Besides, the flux result in series [2] (1 or 3% HPC/ethanol solution, 9% VA CoTran membrane on dermatomed pigskin) is on record as “about 4 μg/cm^2/h”; in series [2] (1 or 3% HPC/ethanol solution, 19% VA CoTran membrane on dermatomed pigskin) it was “about 11 μg/cm^2/h”; in series [2] (enhancer (methyl laurate:ethanol 1:9), 9% VA CoTran membrane on dermatomed pigskin) it was 9 μg/cm^2/h. In addition, in series [3], the “partition coefficient (Log P)” value is reported as 1.83. For the same substance, in series [4], the “systemic clearance (CL)” value is listed as “about 10 L/h”. Also, in series [5], the solubility in water entry was “about 11 mg/ml”.
Turning to tolterodine L-tartrate, the “delayed contact hypersensitivity reaction” value in series [6] is given as “did not provoke a delayed contact hypersensitivity reaction”.
